Literature values in patent US20060105962A1, “TONIC TO MAINTAIN INTESTINAL FLORA” (priority 2004, published 2006).

System: rats
Conditions: exposure over a thirteen week period, up to 100% safety

Structure (SMILES): O=Cc1ccco1 [furfural compounds, furfural]
- exposure to furfural compounds demonstrated as up to 100% safe: 53.0 mg/kg body weight
